Columns and labels:
prolyl hydroxylase = details: rabbit, in vivo
From the text: Male Japanese white rabbits weighing 2.5 kg were used. A cholesterol group consisting of 8 rabbits were fed on RC-4 diet (sold by Oriental Kobo Co., Ltd.) containing 0.5% cholesterol for 10 weeks. […] A control group consisting of 3 rabbits were fed on RC-4 diet for the same period.
The rabbits were sacrificed by exsangunation from abdominal aorta under anesthesia with pentobarbital and the liver and kidney were removed. A portion of the each organ was homogenized with 9 times the volume of a 0.01M Tris-hydrochloric acid buffer solution (pH 7.4) containing 10^-5 M EDTA and 10^-4 M DTT in Polytron homogenizer. The prolyl hydroxylase activity was expressed as radioactivity of ^3 H2 O released per milligram of protein when ^3 H-proline labeled unhydroxylated collagen was incubated as a substrate for 30 minutes. […] Incubation was carried out at 30° C. for 30 minutes. 100 μl of a 55% trichloroacetic acid aqueous solution was added thereto to stop the reaction. The ^3 H2 O of the reaction mixture was separated by vacuum distillation of the whole reaction mixture. An aliquot (800 μl) of the distillate was mixed with 10 ml of Aquasol and counted for the radioactivity in a liquid scintillation counter. The protein amount was measured by BIO.RAD Protein Assay Kit using bovine serum albumin (BSA) as a standard.

medicinal fatty liver = details: reported in JP-B-No. 60-19891; cited from earlier work
viral hepatitis = details: reported in JP-A-No. 58-35118; cited from earlier work

In the case of `CC(C)(CO)[C@@H](O)C(=O)NCCC(=O)NCCSSCCNC(=O)CCNC(=O)[C@H](O)C(C)(C)CO` [Pantethine, D-bis-(N-pantothenyl-β-aminoethyl)-disulfide], the “Prolyl Hydroxylase Activity, Liver” value (prolyl hydroxylase) is listed as 729.3 ± 45.6 cpm/mg-protein, the “prolyl hydroxylase activity in the liver (in words)” value (prolyl hydroxylase) is listed as “decreased nearly to the level of the normal group” and the “effect on medicinal fatty liver (in words)” value (medicinal fatty liver) is listed as “effective”. For the same compound, the “effect on viral hepatitis (in words)” value (viral hepatitis) was “effective”.

Reference: patent US4937266A, “Inhibitory agent of hepatic fibrosis” (priority 1988, dated 1990)
